How the values were obtained:
Type in all cases: cell-based
[1] = system: Mycobacterium smegmatis ATCC607; assay: Minimum growth inhibitory concentration on agar culture medium with 1% glycerine by serial dilution method; details: agar culture medium with the addition of 1% glycerine
Protocol: (§1) Minimum growth inhibitory concentrations (mcg/ml) of caprazene-1′″-amide derivatives of the formula (II) against some of microorganisms were measured on an agar culture medium by a serial dilution method according to the standard method as provided by Japanese Society of Chemotherapy. For the cultivation of Mycobacterium smegmatis (one of […]), however, there was used an agar culture medium with the addition of 1% glycerine (the same applies to in the following tests).
(§2) Minimum growth inhibitory concentrations (mcg/ml) of some of the caprazene-1′″-ester derivative of the formula (III) against some of microorganisms were measured on an agar culture medium by a serial dilution method according to the standard method as provided by Japanese Society of Chemotherapy.
(§3) Minimum growth inhibitory concentrations (mcg/ml) of some of the caprazol-1′″-amide derivative of the formula (V) against a variety of microorganisms were measured on an agar medium by a serial dilution method according to the standard method as provided by Japanese Society of Chemotherapy.
as §3, with “caprazol-1′″-amide-3′″-ester” for “caprazol-1′″-amide”, “(VI)” for “(V)”
as §3, with “caprazol-3′″-ester derivative or caprazol-1′″-ester-3′″-ester” for “caprazol-1′″-amide”, “(VII)” for “(V)”

[2] = system: Staphylococcus aureus FDA209P; assay: Minimum growth inhibitory concentration on agar culture medium by serial dilution method (Japanese Society of Chemotherapy)
Protocol: as §1, §2, §3
as §3, with “caprazol-1′″-amide-3′″-ester” for “caprazol-1′″-amide”, “(VI)” for “(V)”
as §3, with “caprazol-3′″-ester derivative or caprazol-1′″-ester-3′″-ester” for “caprazol-1′″-amide”, “(VII)” for “(V)”
(§4) Minimum growth inhibitory concentrations (mcg/ml) of some of the derivative of the formula (VIII) against a variety of microorganisms were measured on an agar medium by a serial dilution method according to the standard method as provided by Japanese Society of Chemotherapy.

[3] = system: Micrococcus luteus FDA16; assay: as above
Protocol: as §1, §2, §3
as §4, with “of the caprazol-1′″-amide-3′″-ester derivative of” for “of the derivative of”, “the formula (VI) against a” for “the formula (VIII) against a”
as §4, with “of the caprazol-3′″-ester derivative or caprazol-1′″-ester-3′″-ester derivative of” for “of the derivative of”, “the formula (VII) against a” for “the formula (VIII) against a”
as §4

SMILES	Minimum growth inhibitory concentration (mcg/ml) against bacteria Mycobacterium smegmatis ATCC607 [1]	Minimum growth inhibitory concentration (mcg/ml) against bacteria Staphylococcus aureus FDA209P [2]	Minimum growth inhibitory concentration (mcg/ml) against bacteria Micrococcus luteus FDA16 [3]
CCCCCCCCCCCCCCCCCCOC(=O)C1=CCN(C)C(C(OC2OC(CN)C(O)C2O)C2OC(n3ccc(=O)[nH]c3=O)C(O)C2O)C(=O)N1C (stereo not drawn) [Compound III-CC]	>100 µg/mL	12.5 µg/mL	6.25 µg/mL
CCCCCCC#CCCOC(=O)C1=CCN(C)C(C(OC2OC(CN)C(O)C2O)C2OC(n3ccc(=O)[nH]c3=O)C(O)C2O)C(=O)N1C (stereo not drawn) [Compound III-GG]	25 µg/mL	50 µg/mL	6.25 µg/mL
CCCCCCCCC(=O)OC1CN(C)C(C(OC2OC(CN)C(O)C2O)C2OC(n3ccc(=O)[nH]c3=O)C(O)C2O)C(=O)N(C)C1C(=O)O (stereo not drawn) [Compound VII-C]	0.78 µg/mL	12.5 µg/mL	>50 µg/mL
CCCCCCCCNC(=O)C1C(OC(=O)CCCCCCCC)CN(C)C(C(OC2OC(CN)C(O)C2O)C2OC(n3ccc(=O)[nH]c3=O)C(O)C2O)C(=O)N1C (stereo not drawn) [Compound VI-C]	6.25 µg/mL	12.5 µg/mL	6.25 µg/mL
CCCCCc1ccc(NC(=O)C2=CCN(C)C(C(OC3OC(CN)C(O)C3O)C3OC(n4ccc(=O)[nH]c4=O)C(O)C3O)C(=O)N2C)cc1 (stereo not drawn) [Compound II-5]	3.13 µg/mL	3.13 µg/mL	0.2 µg/mL
CCCCCCCCCCCCCNC(=O)C1=CCN(C)C(C(OC2OC(CN)C(O)C2O)C2OC(n3ccc(=O)[nH]c3=O)C(O)C2O)C(=O)N1C (stereo not drawn) [Compound II-H]	<0.20 µg/mL	3.13 µg/mL	0.78 µg/mL
CCCCCCCCCCNC(=O)C1=CCN(C)C(C(OC2OC(CN)C(O)C2O)C2OC(n3ccc(=O)[nH]c3=O)C(O)C2O)C(=O)N1C (stereo not drawn) [Compound II-E]	0.78 µg/mL	25 µg/mL	0.39 µg/mL
CCCCCCCCCOc1ccc(NC(=O)C2=CCN(C)C(C(OC3OC(CN)C(O)C3O)C3OC(n4ccc(=O)[nH]c4=O)C(O)C3O)C(=O)N2C)cc1 (stereo not drawn) [Compound II-23]	0.78 µg/mL	1.56 µg/mL	0.39 µg/mL
CCCCCCCCCCCC(=O)OC1CN(C)C(C(OC2OC(CN)C(O)C2O)C2OC(n3ccc(=O)[nH]c3=O)C(O)C2O)C(=O)N(C)C1C(=O)O (stereo not drawn) [Compound VII-F, caprazol-3′″-dodecanoyl Ester Derivative]	0.78 µg/mL	0.78 µg/mL	3.13 µg/mL
CCCCCCCCCCCC(=O)OC1CN(C)C(C(OC2OC(CN)C(O)C2O)C2OC(n3ccc(=O)[nH]c3=O)C(O)C2O)C(=O)N(C)C1C(=O)NC1CCCCCCCCCCC1 (stereo not drawn) [Compound VI-Q]	6.25 µg/mL	12.5 µg/mL	3.13 µg/mL
CCCCCCCCCCCCCCCNC(=O)C1=CCN(C)C(C(OC2OC(CN)C(O)C2O)C2OC(n3ccc(=O)[nH]c3=O)C(O)C2O)C(=O)N1C (stereo not drawn) [Compound II-J]	1.56 µg/mL	1.56 µg/mL	0.78 µg/mL
CCCCCCCCCCCCc1ccc(NC(=O)C2=CCN(C)C(C(OC3OC(CN)C(O)C3O)C3OC(n4ccc(=O)[nH]c4=O)C(O)C3O)C(=O)N2C)cc1 (stereo not drawn) [Compound II-12]	6.25 µg/mL	3.13 µg/mL	0.78 µg/mL
CCCCCCCCCCCCCNC(=O)C1=CCN(C)C(C(OC2OC(CNC(=O)OC(C)(C)C)C(O)C2O)C2OC(n3ccc(=O)[nH]c3=O)C(O)C2O)C(=O)N1C (stereo not drawn) [Compound II-H-N-Boc]	25 µg/mL	25 µg/mL	12.5 µg/mL
CCCCCCCC(=O)OC1CN(C)C(C(OC2OC(CN)C(O)C2O)C2OC(n3ccc(=O)[nH]c3=O)C(O)C2O)C(=O)N(C)C1C(=O)O (stereo not drawn) [Compound VII-B]	1.56 µg/mL	12.5 µg/mL	>50 µg/mL
CCCCCCCCCCNC(=O)C1C(OC(=O)CCCCCCCCCC)CN(C)C(C(OC2OC(CN)C(O)C2O)C2OC(n3ccc(=O)[nH]c3=O)C(O)C2O)C(=O)N1C (stereo not drawn) [Compound VI-E]	6.25 µg/mL	12.5 µg/mL	6.25 µg/mL
CCCCCCOc1ccc(NC(=O)C2=CCN(C)C(C(OC3OC(CN)C(O)C3O)C3OC(n4ccc(=O)[nH]c4=O)C(O)C3O)C(=O)N2C)cc1 (stereo not drawn) [Compound II-20]	1.56 µg/mL	6.25 µg/mL	0.39 µg/mL
CCCc1ccc(NC(=O)C2=CCN(C)C(C(OC3OC(CN)C(O)C3O)C3OC(n4ccc(=O)[nH]c4=O)C(O)C3O)C(=O)N2C)cc1 (stereo not drawn) [Compound II-3]	12.5 µg/mL	25 µg/mL	3.13 µg/mL
CCCCCCCCCCCCNC(=O)C1C(O)CN(C)C(C(OC2OC(CN)C(O)C2O)C2OC(n3ccc(=O)[nH]c3=O)C(O)C2O)C(=O)N1C (stereo not drawn) [Compound V-G, caprazol-1′″-dodecyl-amide derivative]	6.25 µg/mL	12.5 µg/mL	25 µg/mL
CN1C(=O)C(C(OC2OC(CN)C(O)C2O)C2OC(n3ccc(=O)[nH]c3=O)C(O)C2O)N(C)CC=C1C(=O)NC1CCCCCCCCCCC1 (stereo not drawn) [Compound II-Q]	3.13 µg/mL	100 µg/mL	0.20 µg/mL
CCCCCCCCCCCCNC(=O)C1C(OC(=O)CCCCCCCCCCC)CN(C)C(C(OC2OC(CN)C(O)C2O)C2OC(n3ccc(=O)[nH]c3=O)C(O)C2O)C(=O)N1C (stereo not drawn) [Compound VI-G, caprazol-1′″-dodecylamide-3′″-dodecanoylester derivative]	6.25 µg/mL	25 µg/mL	3.13 µg/mL
CCCCCCNC(=O)C1=CCN(C)C(C(OC2OC(CN)C(O)C2O)C2OC(n3ccc(=O)[nH]c3=O)C(O)C2O)C(=O)N1C (stereo not drawn) [Compound II-A]	100 µg/mL	>100 µg/mL	3.13 µg/mL
CCCCCCCCCCCCCCNC(=O)C1=CCN(C)C(C(OC2OC(CN)C(O)C2O)C2OC(n3ccc(=O)[nH]c3=O)C(O)C2O)C(=O)N1C (stereo not drawn) [Compound II-I]	0.78 µg/mL	3.13 µg/mL	0.78 µg/mL
CCCCCCCCNC(=O)C1C(O)CN(C)C(C(OC2OC(CN)C(O)C2O)C2OC(n3ccc(=O)[nH]c3=O)C(O)C2O)C(=O)N1C (stereo not drawn) [Compound V-C]	6.25 µg/mL	25 µg/mL	25 µg/mL

From patent publication US8710198B2, “Caprazene as a novel compound and derivatives thereof, and caprazol as a novel compound and derivatives thereof” (Meiji Seika Pharma Co., Ltd., priority 2003, dated 2014)
